Assay [1] deals with cultured human mast cells. Kind of assay: Degranulation inhibition test using cultured human mast cells (IgE cross-linking, β-Hexosaminidase release). It counts as cell-based. The conditions noted are these: Mast cell, cultured human mast cells, read-out: human degranulation ave. IC50. Put shortly:
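Degranulation was triggered by anti-hIgE (10 μg/mL final, 30 min, 37 °C) after a 10-min compound pretreatment (DMSO 0.1%) of cord-blood CD34+-derived mast cells primed 5 days with IL-4 and IgE. β-Hexosaminidase in supernatant was measured with p-nitrophenyl-GlcNAc substrate (A405), expressed against water-lysed total; IC50 (M).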

For assay [2], the target named is GST-Syk Full Protein (human) (Homo sapiens, UniProt P43405). Nature of the assay: Syk kinase inhibition test (HTRF method). In kind it is biochemical. The conditions noted are these: read-out: sykHTRF ave IC50. Put shortly:
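HTRF read-out: after EDTA termination and 1 h with XL665-streptavidin and Eu-anti-phosphotyrosine, the 665/620 nm ratio was measured. The reaction ran 30 min at 20–25 °C with final 6.4 nM human GST-Syk, 250 nM biotinylated peptide, 100 μM ATP, pH 7.0 HEPES buffer, 2% DMSO.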
(Time-resolved FRET reads energy transfer from a long-lived donor to a nearby acceptor.)

Setting [3] is: anti-hIgE stimulation, β-Hexosaminidase index, average.
The mark [4] stands for this setting: HTRF, 100 μM ATP, 30 min room temperature, average.

Read-outs that look alike come from different tables or passages of the source.

On to `Cc1ccnc(Nc2cccc(-c3cnc(CN4CCNC(=O)C4)s3)n2)c1` [Compound A-416, 4-{5-[6-(4-methylpyridin-2-ylamino)pyridin-2-yl]thiazol-2-ylmethyl}piperazin-2-one], for which the IC50 was less than 100 nM in assay [1] (Tables 1-x, compounds A) and less than 100 nM in assay [2] (Tables 1-x, compounds A).
For the compound `Cc1ccnc(Nc2cccc(-c3cnc(N4CCOCC4)s3)n2)c1` [Compound A-417, N-(4-methylpyridin-2-yl)-N-[6-(2-morpholin-4-ylthiazol-5-yl)pyridin-2-yl]amine], the concentration for half-maximal inhibition (IC50) in assay [1] (Tables 1-x, compounds A) is 100 to 1000 nM; in assay [2] (Tables 1-x, compounds A), less than 100 nM.
The matching figures for `Cc1ccnc(Nc2cccc(-c3cnc(N4CCSCC4)s3)n2)c1` [Compound A-418]: 100 to 1000 nM and 100 to 1000 nM.
As for `CC(=O)N1CCN(c2ncc(-c3cccc(Nc4cc(C)ccn4)n3)s2)CC1` [Compound A-419, 1-(4-{5-[6-(4-methylpyridin-2-ylamino)pyridin-2-yl]thiazol-2-yl}piperazin-1-yl)ethanone], the IC50 is 100 to 1000 nM in assay [1] (Tables 1-x, compounds A) and less than 100 nM in assay [2] (Tables 1-x, compounds A).
The like results for `Cc1ccnc(Nc2cccc(-c3cnc(N4CCC(C(=O)N5CCC(O)CC5)CC4)s3)n2)c1` [Compound A-420] were, in that order, greater than 1000 nM and 100 to 1000 nM.
For the compound `Cc1ccnc(Nc2cccc(-c3cnc(N4CCN(S(N)(=O)=O)CC4)s3)n2)c1` [Compound A-421, 4-{5-[6-(4-methylpyridin-2-ylamino)pyridin-2-yl]thiazol-2-yl}piperazine-1-sulfonamide], the IC50 is 100 to 1000 nM in assay [1] (Tables 1-x, compounds A) and less than 100 nM in assay [2] (Tables 1-x, compounds A).
As to `COc1ccnc(Nc2cccc(-c3cnc(N4CCOCC4)s3)n2)c1` [Compound A-422, N-(4-methoxypyridin-2-yl)-N-{6-[2-(morpholin-4-yl)thiazol-5-yl]pyridin-2-yl}amine], the IC50 in assay [1] (Tables 1-x, compounds A) was 100 to 1000 nM; in assay [2] (Tables 1-x, compounds A), less than 100 nM.
The matching figures for `Cc1ccnc(Nc2cccc(-c3cnc(N4C[C@@H](O)[C@@H](O)C4)s3)n2)c1` [Compound A-423, (3R,4S)-1-{5-[6-(4-methylpyridin-2-ylamino)pyridin-2-yl]thiazol-2-yl}pyrrolidine-3,4-diol]: 100 to 1000 nM and less than 100 nM.
For `CC(=O)N(C)c1ncc(-c2cccc(Nc3cc(C)ccn3)n2)s1` [Compound A-424, N-methyl-N-{5-[6-(4-methylpyridin-2-ylamino)pyridin-2-yl]thiazol-2-yl}acetamide], the IC50 in assay [1] (setting [3]) was 100 to 1000 nM; in assay [2] (setting [4]), less than 100 nM.
Turning to `Cc1ccnc(Nc2cccc(-c3sc(N4CCOCC4)nc3C)n2)c1` [Compound A-425, N-[6-(4-methyl-2-morpholin-4-ylthiazol-5-yl)pyridin-2-yl]-N-(4-methylpyridin-2-yl)amine], the IC50 is 100 to 1000 nM in assay [1] (setting [3]) and less than 100 nM in assay [2] (setting [4]).
With `CNc1ncc(-c2cccc(Nc3cc(C)ccn3)n2)s1` [Compound A-426, N-methyl-N-{5-[6-(4-methylpyridin-2-ylamino)pyridin-2-yl]thiazol-2-yl}amine], the results for the IC50 in assay [1] (setting [3]) and in assay [2] (setting [4]) were 100 to 1000 nM and less than 100 nM, respectively.
Regarding `CNC(=O)N1CCN(c2ncc(-c3cccc(Nc4cc(C)ccn4)n3)s2)CC1` [Compound A-427, N-methyl-4-{5-[6-(4-methylpyridin-2-ylamino)pyridin-2-yl]thiazol-2-yl}piperazine-1-carboxamide], the IC50 in assay [1] (setting [3]) and in assay [2] (setting [4]) was less than 100 nM throughout.
As to `Cc1ccnc(Nc2cccc(-c3sc(N4CCC(C(N)=O)CC4)nc3C)n2)c1` [Compound A-429, 1-{4-methyl-5-[6-(4-methylpyridin-2-ylamino)pyridin-2-yl]thiazol-2-yl}piperidine-4-carboxamide], the half-maximal inhibitory concentration (IC50) was greater than 1000 nM in assay [1] (Tables 1-x, compounds A) and less than 100 nM in assay [2] (Tables 1-x, compounds A).
Take `COC1CCN(c2ncc(-c3cccc(Nc4cc(C)ccn4)n3)s2)CC1` [Compound A-431, N-{6-[2-(4-methoxypiperidin-1-yl)thiazol-5-yl]pyridin-2-yl}-N-(4-methylpyridin-2-yl)amine]: the IC50 is 100 to 1000 nM in assay [1] (Tables 1-x, compounds A) and less than 100 nM in assay [2] (Tables 1-x, compounds A).
Regarding `Cc1ccnc(Nc2cccc(-c3cnc(N4CCN(C)CC4)s3)n2)c1` [Compound A-432, N-{6-[2-(4-methylpiperazin-1-yl)thiazol-5-yl]pyridin-2-yl}-N-(4-methylpyridin-2-yl)amine], the IC50 in assay [1] (Tables 1-x, compounds A) was 100 to 1000 nM; in assay [2] (Tables 1-x, compounds A) it was less than 100 nM.
Take `Cc1ccnc(Nc2cccc(-c3cnc(N4CCC(O)CC4)s3)n2)c1` [Compound A-433, 1-{5-[6-(4-methylpyridin-2-ylamino)pyridin-2-yl]thiazol-2-yl}piperidin-4-ol]: the IC50 in assay [1] (Tables 1-x, compounds A) was less than 100 nM; in assay [2] (Tables 1-x, compounds A), less than 100 nM.
In the case of `Cc1ccnc(Nc2cccc(-c3cnc(N4CCC(C(=O)N(C)C)CC4)s3)n2)c1` [Compound A-434], the IC50 in assay [1] (Tables 1-x, compounds A) was greater than 1000 nM; in assay [2] (Tables 1-x, compounds A), 100 to 1000 nM.
As for `COCCNC(=O)C1CCN(c2ncc(-c3cccc(Nc4cc(C)ccn4)n3)s2)CC1` [Compound A-435], the IC50 in assay [1] (Tables 1-x, compounds A) was greater than 1000 nM; in assay [2] (Tables 1-x, compounds A), 100 to 1000 nM.
As for `CNC(=O)C1CCN(c2ncc(-c3cccc(Nc4cc(OC)ccn4)n3)s2)CC1` [Compound A-436, N-methyl-1-{5-[6-(4-methoxypyridin-2-ylamino)pyridin-2-yl]thiazol-2-yl}piperidine-4-carboxamide], the IC50 in assay [1] (Tables 1-x, compounds A) was 100 to 1000 nM; in assay [2] (Tables 1-x, compounds A), less than 100 nM.
As for `Cc1ccnc(Nc2cccc(-c3sc(N4CCN(C=O)CC4)nc3C)n2)c1` [Compound A-437, 4-{4-methyl-5-[6-(4-methylpyridin-2-ylamino)pyridin-2-yl]thiazol-2-yl}piperazine-1-carbaldehyde], the IC50 in assay [1] (Tables 1-x, compounds A) is 100 to 1000 nM; in assay [2] (Tables 1-x, compounds A), less than 100 nM.
The matching figures for `COC(=O)N1CCN(c2ncc(-c3cccc(Nc4cc(C)ccn4)n3)s2)CC1` [Compound A-438, methyl 4-{5-[6-(4-methylpyridin-2-ylamino)pyridin-2-yl]thiazol-2-yl}piperazine-1-carboxylic acid methyl ester]: 100 to 1000 nM and less than 100 nM.
The like results for `Cc1ccnc(Nc2cccc(-c3cnc(N4CCN(C(=O)CO)CC4)s3)n2)c1` [Compound A-439, 2-hydroxy-1-(4-{5-[6-(4-methylpyridin-2-ylamino)pyridin-2-yl]thiazol-2-yl}piperazin-1-yl)ethanone] were, in that order, less than 100 nM and less than 100 nM.
`CCC(=O)N1CCN(c2ncc(-c3cccc(Nc4cc(C)ccn4)n3)s2)CC1` [Compound A-440, 1-(4-{5-[6-(4-methylpyridin-2-ylamino)pyridin-2-yl]thiazol-2-yl}piperazin-1-yl)propan-1-one]: the IC50 in assay [1] (Tables 1-x, compounds A) was 100 to 1000 nM; in assay [2] (Tables 1-x, compounds A), less than 100 nM.
Take `Cc1ccnc(Nc2cccc(-c3cnc(N4CCN(C(=O)N(C)C)CC4)s3)n2)c1` [Compound A-441, N,N-dimethyl-4-{5-[6-(4-methylpyridin-2-ylamino)pyridin-2-yl]thiazol-2-yl}piperazine-1-carboxamide]: the IC50 was 100 to 1000 nM in assay [1] (Tables 1-x, compounds A) and less than 100 nM in assay [2] (Tables 1-x, compounds A).
The matching figures for `COc1ccnc(Nc2cccc(-c3cnc(N4CCN(C(C)=O)CC4)s3)n2)c1` [Compound A-442, 1-(4-{5-[6-(4-methoxypyridin-2-ylamino)pyridin-2-yl]thiazol-2-yl}piperazin-1-yl)ethanone]: 100 to 1000 nM and less than 100 nM.
Regarding `CC(=O)N1CCN(c2ncc(-c3cccc(Nc4cc(Cl)ccn4)n3)s2)CC1` [Compound A-443, 1-(4-{5-[6-(4-chloropyridin-2-ylamino)pyridin-2-yl]thiazol-2-yl}piperazin-1-yl)ethanone], the IC50 is 100 to 1000 nM in assay [1] (Tables 1-x, compounds A) and less than 100 nM in assay [2] (Tables 1-x, compounds A).
Regarding `Cc1ccnc(Nc2cccc(-c3cnc(N(C)C4CCC(C(=O)O)CC4)s3)n2)c1` (stereo not shown) [Compound A-444, 4-(methyl-{5-[6-(4-methylpyridin-2-ylamino)pyridin-2-yl]thiazol-2-yl}amino)cyclohexanecarboxylic acid], the IC50 is 100 to 1000 nM in assay [1] (Tables 1-x, compounds A) and less than 100 nM in assay [2] (Tables 1-x, compounds A).
With `Cc1ccnc(Nc2cccc(-c3cnc(N(C)C4CCC(C(N)=O)CC4)s3)n2)c1` (stereo not shown) [Compound A-446, 4-(N-methyl-N-{5-[6-(4-methylpyridin-2-ylamino)pyridin-2-yl]thiazol-2-yl}amino)cyclohexanecarboxamide], the IC50 is 100 to 1000 nM in assay [1] (Tables 1-x, compounds A) and less than 100 nM in assay [2] (Tables 1-x, compounds A).
Take `Cc1ccnc(Nc2cccc(-c3cnc(N4CCC(c5noc(=O)[nH]5)CC4)s3)n2)c1` [Compound A-450, 3-(1-{5-[6-(4-methylpyridin-2-ylamino)pyridin-2-yl]thiazol-2-yl}piperidin-4-yl)-4H-[1,2,4]oxadiazole-5-one]: the IC50 in assay [1] (Tables 1-x, compounds A) was greater than 1000 nM; in assay [2] (Tables 1-x, compounds A) it was less than 100 nM.
Consider `Cc1ccnc(Nc2cccc(-c3cnc(N(C)C4CCNCC4)s3)n2)c1` [Compound A-452, N-methyl-N-{5-[6-(4-methylpyridin-2-ylamino)pyridin-2-yl]thiazol-2-yl}-N-piperidin-4-ylamine], for which the IC50 is greater than 1000 nM in assay [1] (Tables 1-x, compounds A) and less than 100 nM in assay [2] (Tables 1-x, compounds A).
For the compound `COC(CN(C)c1ncc(-c2cccc(Nc3cc(C)ccn3)n2)s1)OC` [Compound A-457, N-(2,2-dimethoxyethyl)-N-methyl-N-{5-[6-(4-methylpyridin-2-ylamino)pyridin-2-yl]thiazol-2-yl}amine], the IC50 in assay [1] (Tables 1-x, compounds A) was 100 to 1000 nM; in assay [2] (Tables 1-x, compounds A), less than 100 nM.
On to `CC(=O)N1CCC(N(C)c2ncc(-c3cccc(Nc4cc(C)ccn4)n3)s2)CC1` [Compound A-458, 1-[4-(N-methyl-N-{5-[6-(4-methylpyridin-2-ylamino)pyridin-2-yl]thiazol-2-yl}amino)piperidin-1-yl]ethanone], for which the IC50 in assay [1] (Tables 1-x, compounds A) is 100 to 1000 nM; in assay [2] (Tables 1-x, compounds A) it was less than 100 nM.

A word on the IC50: it is the concentration needed to halve the response being measured.

These data come from patent publication US7803801B2, “Aminopyridine compounds having Syk inhibitory activity” (Japan Tobacco, Inc., priority 2005, dated 2010).
